Earlier results, collected in publication PMC11776332 (Virology Journal, 2025).

Test system: HIV-1

Q: For C=C(C)[C@@H]1CC[C@]2(NCCN3CCS(=O)(=O)CC3)CC[C@]3(C)[C@H](CC[C@@H]4[C@@]5(C)CC=C(C6=CC[C@@](CF)(C(=O)O)CC6)C(C)(C)[C@@H]5CC[C@]43C)[C@@H]12 [GSK3640254], which “IC50 compared with CV-10240” value is on record?
A: lower IC50 than CV-10240
